From PubChem BioAssay (NCI) come the findings set out here.

Molecules are shown by their SMILES. Values joined by “and” are separate entries in the source; they are usually repeats but may differ in a detail not shown here. Equal entries are not always repeated.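 Each compound was tested at five concentrations against cells in 96-well plates for 48 hours. Here, GI50 denotes the concentration required for 50% inhibition of growth. TGI: concentration producing complete growth inhibition.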 Where only a bound is given, the exact number is not on record here.

Holding throughout (assay): NCI anticancer screen, dose series, 48 h
Experiment [1] concerns BT-549 breast.
In experiment [2] the test system is DU-145 prostate.
In experiment [3] the test system is EKVX NSCLC.
Experiment [4] concerns HCT-15 colon.
Experiment [5] deals with LOX IMVI melanoma.
Experiment [6] deals with MALME-3M melanoma.
Experiment [7] relates to RXF 393 renal.
Experiment [8] deals with SK-MEL-2 melanoma.
The test system of experiment [9] is T-47D breast.
The subject of experiment [10] is UO-31 renal.

On to `COC(=O)CC1C2(C)C3=C(C)C(c4ccoc4)CC3OC2C2OC(=O)C3(C)C=CC(=O)C1(C)C23` (stereo not drawn), for which the TGI in [1] was 2.35 µM; in experiment [2], 2.06 µM; in [3] it was 3.89 µM; in [4] it was 3.15 µM; in experiment [5], 2.3 µM; in experiment [6], 2.48 µM. The TGI stood at 3 µM in experiment [7], 3.58 µM in experiment [8], 2.92 µM in [9] and 2.52 µM in experiment [10].

As for `CC(=O)NC(CS)C(=O)O` (stereo not drawn), the TGI in experiment [1] was > 100 µM; in experiment [2], > 100 µM; in experiment [3] it was > 100 µM and 87600 µM; in experiment [4], > 100 µM and 47600 µM; in experiment [5], > 100 µM; in [6], > 100 µM and 54500 µM. The TGI is > 100 µM and 69300 µM in [7]; > 100 µM and 66300 µM in experiment [8]; > 100 µM in experiment [9]; > 100 µM and 45400 µM in experiment [10]. Also, the GI50 in experiment [2], in experiment [3], in experiment [4], in experiment [6], in experiment [7] and in experiment [8] was > 100 µM in each case. In addition, the GI50 in experiment [9] and in experiment [10] was > 100 µM in each case.

Turning to `CCOC(=O)Nc1ccc2nc(N3CCCCCC3)sc2c1`, the GI50 was 12 µM in experiment [1]; 4 µM in [2]; 5.14 µM in [3]; 0.84 µM in experiment [4]; 2.16 µM in experiment [5]; 1.35 µM in experiment [6]. In addition, the GI50 in experiment [7] is 1.99 µM; in experiment [8], 2.67 µM; in experiment [9] it was 4.7 µM; in experiment [10] it was 6.17 µM. Besides, the TGI in [1] was 49.6 µM; in experiment [2], > 83.3 µM; in experiment [3], > 100 µM; in [4], > 46.2 µM; in experiment [5], > 100 µM; in experiment [6] it was 55.7 µM. Also, the TGI in experiment [7] was > 26.2 µM; in experiment [8], > 72.5 µM; in [9] it was > 84.3 µM; in experiment [10], 75.1 µM.

For the compound `Cc1cncc(-c2nc(NCCc3c[nH]c4ccccc34)c3ncn(C(C)C)c3n2)c1`, the GI50 in [1] was 2.99 µM; in experiment [2], 4.41 µM; in experiment [3], 6.77 µM; in experiment [4], 1.67 µM; in experiment [5], 4.61 µM; in [6], 2.08 µM. The GI50 is 2.54 µM in experiment [7], 2.83 µM in experiment [8], 4.98 µM in experiment [9] and 3.06 µM in experiment [10]. Besides, the TGI in [1] is 15 µM; in experiment [2], 22.1 µM; in experiment [3], 35.5 µM; in experiment [4], 3.82 µM; in experiment [5], 15.5 µM; in experiment [6], 5.71 µM. For the same compound, the TGI in experiment [7] turned out to be 11.2 µM; in [8], 9.8 µM; in experiment [9], 19.6 µM; in experiment [10], 12.9 µM.

In the case of `COc1ccc(/C(=C/c2ccc3ccccc3c2)c2nn[nH]n2)cc1OC`, the GI50 was 10.9 µM in [1]; 3.53 µM in experiment [2]; 18.2 µM in experiment [3]; 2.92 µM in experiment [4]; 5.63 µM in [5]; 3.08 µM in experiment [6]. The GI50 was 2.48 µM in experiment [7], 4.36 µM in experiment [8], 28.2 µM in [9] and 5.59 µM in [10]. For the same compound, the TGI was > 100 µM in experiment [1]; 49.2 µM in experiment [2]; > 100 µM in experiment [3]; > 100 µM in experiment [4]; > 100 µM in experiment [5]; > 100 µM in [6]. Further, the TGI in [7] was 9.07 µM; in [8], > 100 µM; in [9], > 100 µM; in experiment [10] it was > 100 µM.

Turning to `O=C(CN1CCN(CCN2C(=O)c3cccc4cccc(c34)C2=O)CC1)Nc1ccc2ncsc2c1`, the GI50 in experiment [1] was 11.9 µM; in experiment [2], 5.92 µM; in [3], 9.79 µM; in experiment [4], 5.05 µM; in experiment [5] it was 4.93 µM; in experiment [6], 7.47 µM. Moreover, the GI50 was 6.32 µM in experiment [7], 6.49 µM in experiment [8], 5.12 µM in experiment [9] and 6.21 µM in experiment [10]. The TGI in [1] came out at 30.1 µM; in experiment [2] it was 19.6 µM; in experiment [3], 39.2 µM; in experiment [4], 20.1 µM; in experiment [5], 20.4 µM; in experiment [6], 24 µM. Besides, the TGI in experiment [7] was > 100 µM; in experiment [8] it was 23.6 µM; in experiment [9], 30.5 µM; in [10], 30.8 µM.
